{"source": "patent US11628185B2", "about": "“Stabilized active oxygen-generating antiseptic compositions, irrigation solutions, and articles” (priority 2021, dated 2023)", "origin": "cited, not measured here", "key": {"[1]": {"system": "osteoblasts, fibroblasts, and myoblasts"}, "[2]": {"settings": "topical application prior to wound closure"}, "[3]": {"settings": "all tested concentrations, even dilute 0.35%; used for more than 1 minute"}}, "data": [{"substance": "povidone-iodine", "values": [{"measurement": "effect of lavage on post-operative infection risk", "setting": "post-operative infection; Mayo Clinic case series, more than 10,000 THAs and TKAs", "result": "no risk reduction effect"}, {"measurement": "post-operative infection rates versus non-povidone-iodine lavage", "setting": "post-operative infection; meta-analysis March 2020, seven studies, 31,213 TJA cases", "result": "no differences"}, {"measurement": "effect on cell migration and survival", "setting": "[1]", "result": "inhibiting cell migration and survival"}, {"measurement": "serum iodine level", "setting": "[2]", "result": "significant increases"}, {"measurement": "chondrotoxic effect", "setting": "[3]", "result": "pronounced chondrotoxic effect"}]}]}
